Measured values taken from US7163672B2, “Pharmaceutical aerosol formulation” (AstraZeneca AB, priority 2000, dated 2007).

Assay: Surface energy by inverse gas chromatography (IGC)
Type: physicochemical
Conditions: 35° C., powder
Description: Surface energy of the drug and the drug surfactant particles was measured by inverse gas chromatography. A silanised U-shaped column (3 mm internal diameter, 30 cm length) was packed with approximately 400 mg of the test powder and dried under nitrogen for 24 hours at 50° C. The powder bed was then allowed to settle for 24 hours at 35° C. (temperature used during the experiments) under nitrogen. The test probes used were: hexane, heptane, octane, chloroform, CCl4, benzene, acetone, tetrahydrofuran, ethyl acetate and diethyl ether. One ml of air containing a minute concentration of each gaseous probe was injected into the column and the retention time measured.

CCC(=O)OCC(=O)[C@@]1(OC(=O)CC)[C@@H](C)C[C@H]2[C@@H]3CCC4=CC(=O)C=C[C@]4(C)[C@@]3(Cl)[C@@H](O)C[C@@]21C [BDP, Beclomethasone dipropionate]
γs^D (n = 3): 52.3 mJ/m²

Salbutamol sulphate
γs^D (n = 3): 43.3 mJ/m²
